Measurements as given in patent publication US20160264616A1, “THERAPEUTIC COMPOUNDS AND METHODS” (priority 2015, published 2016).
Entries after “also recorded” stand apart in the source; their conditions may differ.

Tests used:
[1] = target: T1, RGS17 (Homo sapiens, UniProt Q9UGC6); assay: Differential scanning fluorimetry (DSF) with RGS17; type: binding; conditions: 50 μM compound; for effect on RGS17 thermal stability (DSF): versus DMSO
T1 construct: This is the same RGS17 construct used in the high throughput screening campaign that is fully active despite the N-terminal truncation; made in house
T1 sequence (Q9UGC6 84-200 limits assumed): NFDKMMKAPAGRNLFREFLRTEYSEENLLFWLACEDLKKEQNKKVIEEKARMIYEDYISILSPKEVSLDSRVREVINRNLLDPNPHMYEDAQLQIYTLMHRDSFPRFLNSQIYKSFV
Description: Further evaluation of the compounds designated UI-5, UI-1590, UI-1907 and UI-1956 was conducted using Differential Scanning Fluorimetry (DSF). This method allows for the rapid measurement of protein stability based on the melting temperature (Tm) of the target protein that is bound by ligand. A shift of Tm indicates a change in protein stability to melting due to stabilization added by the small molecule binding to the target protein. The four compounds were incubated at 50 μM with RGS17 or Gαo in the presence of Sypro Orange. In aqueous solution the fluorescence emission from the dye is very weak. However, when the dye binds to hydrophobic regions of a protein a significant increase in florescence intensity is observed intensity (20). The hydrophobic parts of a native, fully folded, protein in solution are generally buried within the protein and therefore not accessible to the dye resulting in little fluorescence emission. When the protein unfolds the dye molecules can bind to the exposed hydrophobic regions of the proteins, resulting in increased fluorescence. […] UI-5, UI-1590 and UI-1956 shifted RGS17's Tm by 2.1° C., 1.4° C. and 1.0° C., respectively (FIG. 4B). These three compounds were further characterized for activity against RGS17.
Differential scanning fluorimetry experiments were carried out using white 384-well μltraAMP PCR plates (Sorenson BioSciences; Salt Lake City, Utah). All experiments were carried out as previously described by Phillips and Hernandez de la Pena.(55) In brief, a 1:2000 dilution of Sypro Orange was made by adding 1 μL of Sypro Orange to 2 mL of PBS at pH 7.5. First, 1.2 mg/mL protein was incubated with 50 μM of each compound at room temperature for 15 min in a 10 μL volume. Upon completion of the incubation, 110 μL of the Sypro Orange-PBS solution was added to each compound/protein mixture. This yielded a final volume of 120 μL containing 0.1 mg/mL protein. Finally, 20 μL of the Sypro Orange/compound/protein mix for each compound and RGS17 or Gαo proteins was added to four wells of the 384-well plate. The experiment was run on the Roche LightCycler 480 (Roche, Switzerland) using a two-step method. Starting with a 25° C. baseline step and a second step with a target temperature of 95° C. with continuous acquisition and set acquisition rate of 3 per ° C. All data was collected using the Roche LightCycler data acquisition ability and analyzed with Graphpad Prism 6.0, using first and second derivatives of the fluorescent melting curves.

[2] = tested on: RGS17ΔN:Gαo interaction in HEK293T cells; assay: RGS localization assay, GFP-RGS17ΔN co-transfected with hGαo in HEK293T cells; type: cell-based, human
Description: HEK293T cells co-transfected with GFP-RGS17FL and human Gαo were treated with UI-5, UI-1590 and […] to determine if the compounds could disrupt the RGS17:Gαo interaction that could drive RGS17 to the membrane. […] To test this hypothesis, we constructed a GFP-RGS17 fusion protein with an N-terminal truncation, removing the cysteine-rich motif. […] As a negative control, we tested a known RGS4 inhibitor (CCG-50014) in this assay against RGS17ΔN (21). […] Finally, to ensure the localization was not due to the GFP tag, pAcGFP vector was co-transfected into HEK293T cells with hGαo. […] Cross-sectional fluorescence intensity analysis was used to quantify the intensity of signal at a cross section of the cell. Average signal at the membrane and in the cytoplasm were calculated and change in signal intensity was assessed between time zero and time final. […] Additionally, the control condition of CCG-50014 was subject to the same analyses as the lead compound.
Twenty four (24) hours prior to plating, assay plates were coated with 30 μl poly-D-lysine per well. Human Embryonic Kidney 293T cells (HEK293T) were plated in to 96 well tissue culture treated glass bottom view plates (Perkin Elmer, Part No. 6005430) at a density of 25K cells per well. 24 hours post seeding, cells were transfected with hGαo in pCDNA 3.1(+), pAcGFPRGS17 FL, pAcGFP RGS17ΔN, empty pAcGFP, hGαo+pAcGFPRGS17 FL, hGαo+pAcGFP RGS17ΔN, or hGαo+empty pAcGFP vector using Lipofectamine 2000 (Life Technologies) as the transfection reagent and according to manufacture protocols. 24 hours post transfection, cell media was removed and replaced with […] serum free, phenol red free DMEM (Life Technologies, Ref No. 31053-028). Cells were then imaged using a Zeiss LSM510 confocal microscope (University of Iowa Central Microscopy Core). Images were analyzed using NIH Image J software and Graphpad Prism 6.
Compounds at 2× final desired concentrations were diluted in serum free, phenol red free DMEM.

[3] = target: T1, RGS17; assay: Isothermal titration calorimetry (ITC); type: binding; conditions: for Gibbs free energy of binding / binding enthalpy ΔH / entropic component TΔS / Kd: ITC; for Kd: 25 C, read-out: dissociation constant (Kd)
Description: ITC was used to determine the binding properties of the lead compounds in solution by determining the dissociation constant (Kd) and stoichiometry (n) of the interaction between RGS17 and the inhibitor compounds.
RGS17 was concentrated in ITC sample buffer (50 mM HEPES pH 7.5, 100 mM NaCl and 1 mM beta-mercaptoethanol) at 50 μM. […] DMSO concentration in both compound and RGS17 sample was 1%, to account for any DMSO effects. Total injections for UI-1956 were set to 5 μL with a duration time of 10 secs and spacing of 240 secs and for UI-5 were set to 12 μL with a duration time of 24 secs and spacing of 240 secs. The total amount of injections for UI-1956 and UI-5 were, 32 and 23 respectively. All experiments were conducted on a GE MicroCal VP-ITC System (General Electric; Piscataway, N.J.) at 25 C. Heats of dilution were determined by averaging the heat evolved by the last five injections and subtracted from the raw data. The values for affinity, stoichiometry and change in enthalpy were then determined using the ORIGIN software provided by the manufacturer.

[4] = target: T1, RGS17; assay: MALDI-TOF mass spectrometry for covalent adducts; conditions: two-fold molar excess of compound, one hour
Description: Matrix-assisted laser desorption ionization time of flight (MALDI-TOF) mass spectrometry was employed to evaluate if lead compounds were capable of covalently modifying RGS17's RGS homology domain. Covalent adducts on RGS17 were not detected with any compounds using two-fold molar excess of compound when incubated for one hour with RGS17ΔN (FIG. 8). For all samples, the only species that were observed were singly and doubly charged unmodified, intact protein with mass-to-charge ratios of […], respectively.
Following treatment with compound, buffer was exchanged for 25 mM ammonium bicarbonate using an Amicon Ultra 10K 0.5 mL centrifugal filtration device (Millipore, Billerica, Mass.). Intact protein molecular weight was then assessed by matrix-assisted laser desorption/ionization-time of flight (MALDI-TOF) mass spectrometry. This was accomplished using a Bruker ultrafleXtreme in the linear TOF mode, employing 384-well Anchor chip targets (Billerica, Mass.). MALDI matrix reagents sinapinic acid and alpha-Cyano-4-hydroxycinnamic acid, purchased from Bruker, were reconstituted to 5 mg/ml in a 1:1 solution of acetonitrile and aqueous 0.1% formic acid (Billerica, Mass.). Samples in ammonium bicarbonate were diluted to 5 μM in aqueous 0.1% formic acid and introduced to target as a 1:1 solution of protein sample to MALDI matrix buffer. After crystal drying, samples were desalted on the target plate using aqueous 0.1% TFA. The laser was configured to emit pulses at 200 Hz at an optimal wavelength of 355 nm, and input energy of 500 μJ/pulse was attenuated 80-90%. Mass scale was calibrated using horse heart myoglobin, and 2000 shots were acquired per spectra.

[5] = Solubility in aqueous ITC buffer

Structure (SMILES): CC(C)=CCC[C@]1(C)C=Cc2c(O)c3c(c(CC=C(C)C)c2O1)O[C@]12C(=C[C@@H]4C[C@H]1C(C)(C)O[C@@]2(C/C=C(/C)C(=O)O)C4=O)C3=O [UI-1907]
- effect on RGS17 thermal stability (DSF) [1]: alter the thermal stability of both RGS17 and Gαo; also recorded: bind both the RGS and G protein subunit in a non-specific manner
- delocalization of RGS17ΔN from the membrane ([2]; 100 μM compound): not

Structure (SMILES): O=c1c(-c2cc(O)c(O)c(O)c2)coc2cc(O)c(O)c(O)c12 [UI-1956, 5,6,7-trihydroxy-3-(3,4,5-trihydroxyphenyl)-4H-chromen-4-one]
- shift of RGS17 Tm [1]: 1.0 °C
- effect on RGS17 thermal stability (DSF) [1]: stabilize RGS17 against thermal denaturing
- dissociation constants as determined by isothermal titration calorimetry (summary) [3]: low μM to nM
- Gibbs free energy of binding [3]: -8.389 kcal/mol
- binding enthalpy ΔH [3]: -2.158 kcal/mol
- entropic component TΔS [3]: 6.2313 kcal/mol
- Kd [3]: 714 nM
- covalent adducts on RGS17 [4]: did not form adducts
- delocalization / cellular activity ([2]; 10 μM compound): had cellular activity
- time to full delocalization of GFP-RGS17 from the membrane ([2]; 10 μM compound): 30 min
- delocalization of RGS17ΔN from the membrane ([2]; 100 μM compound): delocalization occurs
- time to full delocalization of GFP-RGS17 from the membrane ([2]; 100 μM compound): 20 min
- solubility at the high concentration needed for ITC [5]: soluble in the aqueous buffer

Structure (SMILES): CC1=C(O)C(=O)C=C2C1=CC=C1[C@@]2(C)CC[C@@]2(C)[C@@H]3C[C@](C)(C(=O)O)CC[C@]3(C)CC[C@]12C [UI-1590]
- shift of RGS17 Tm [1]: 1.4 °C
- effect on RGS17 thermal stability (DSF) [1]: stabilize RGS17 against thermal denaturing
- dissociation constants as determined by isothermal titration calorimetry (summary) [3]: low μM to nM
- covalent adducts on RGS17 [4]: did not form adducts
- delocalization / cellular activity ([2]; 10 μM compound): had cellular activity
- time to full delocalization of GFP-RGS17 from the membrane ([2]; 10 μM compound): 20 min
- delocalization of RGS17ΔN from the membrane ([2]; 100 μM compound): delocalization occurs
- time to full delocalization of GFP-RGS17 from the membrane ([2]; 100 μM compound): 5 min
- solubility at the high concentration needed for ITC [5]: not soluble at the high concentration required; also recorded: not amendable to ITC due to solubility issues

Structure (SMILES): C[n+]1cc2c3c(ccc2c2ccc4cc5c(cc4c21)OCO5)OCO3 [UI-5]
- shift of RGS17 Tm [1]: 2.1 °C
- effect on RGS17 thermal stability (DSF) [1]: stabilize RGS17 against thermal denaturing
- dissociation constants as determined by isothermal titration calorimetry (summary) [3]: low μM to nM
- Gibbs free energy of binding [3]: -8.168 kcal/mol
- binding enthalpy ΔH [3]: -0.148 kcal/mol
- entropic component TΔS [3]: 8.0202 kcal/mol
- Kd [3]: 1020 nM
- covalent adducts on RGS17 [4]: did not form adducts
- delocalization / cellular activity ([2]; 10 μM compound): had cellular activity
- time to full delocalization of GFP-RGS17 from the membrane ([2]; 10 μM compound): 30 min
- delocalization of RGS17ΔN from the membrane ([2]; 100 μM compound): delocalization occurs
- time to full delocalization of GFP-RGS17 from the membrane ([2]; 100 μM compound): 5 min
- solubility at the high concentration needed for ITC [5]: soluble in the aqueous buffer
